The target of one assay is Factor XIa (Homo sapiens (Human), UniProt P03951). Put plainly: Factor XIa inhibition assay (FLINT) utilizing a fluorophore-quencher pair peptide substrate. The assay is classed as biochemical. The settings on record: 30 min preincubation, kinetic reads over 30 min, 5Fam-KLTRAETV-K5Tamra substrate 15 μM; read-out: FXIa Kin Inh IC50. The gist of the method:
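FXIa ([…]) preincubated 30 min with compound (11-point 3-fold dilution, top 100 nM, 2% DMSO), then 15 μM quenched FXI Arg146-based peptide added; Tris pH 7.5, CaCl2, BSA, CHAPS. Fluorescence 485/520 nm read kinetically every 5 min over 30 min at RT; IC50 by 4-parameter fit.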

The target of a further assay is human plasma kallikrein (Homo sapiens (Human), UniProt P03952). Description: Kallikrein inhibition assay (FLINT) utilizing a quenched AMC peptide substrate. The assay is classed as biochemical. The note with it: 30 min preincubation, kinetic reads over 30 min, Z-Gly-Pro-Arg-AMC substrate 50 μM; read-out: Kallikrein Kin Inh IC50. The gist of the method: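 Enzyme (2 nM final) pre-incubated 30 min at room temperature with compound (11-point, 3-fold, top 1 μM, 2% DMSO), then 50 μM Z-Gly-Pro-Arg-AMC added in Tris pH 7.5 buffer. Kinetic fluorescence 340/440 nm every 5 min over 30 min; IC50 from 4-parameter logistic fit.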
Chain of human plasma kallikrein (P03952 391-638): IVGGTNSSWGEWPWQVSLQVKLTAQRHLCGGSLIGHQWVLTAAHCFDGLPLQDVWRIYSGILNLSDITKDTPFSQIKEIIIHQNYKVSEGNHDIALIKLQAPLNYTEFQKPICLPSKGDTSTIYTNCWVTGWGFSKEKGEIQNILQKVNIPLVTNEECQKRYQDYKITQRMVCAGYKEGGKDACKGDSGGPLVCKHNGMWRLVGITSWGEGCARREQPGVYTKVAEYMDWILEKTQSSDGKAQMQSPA
Chain of human plasma kallikrein (P03952 20-390 partner): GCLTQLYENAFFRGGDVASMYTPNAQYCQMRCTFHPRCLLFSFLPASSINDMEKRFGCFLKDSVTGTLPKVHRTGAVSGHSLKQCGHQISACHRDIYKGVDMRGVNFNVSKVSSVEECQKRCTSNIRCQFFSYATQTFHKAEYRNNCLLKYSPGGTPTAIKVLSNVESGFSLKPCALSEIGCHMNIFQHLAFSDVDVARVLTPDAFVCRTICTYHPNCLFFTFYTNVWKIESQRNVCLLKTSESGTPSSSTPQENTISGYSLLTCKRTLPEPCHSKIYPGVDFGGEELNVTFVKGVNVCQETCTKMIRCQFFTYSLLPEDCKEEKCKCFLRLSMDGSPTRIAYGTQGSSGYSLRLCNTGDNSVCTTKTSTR

As usually defined, the IC50 is the midpoint of a concentration-inhibition curve.

SMILES strings stand for the structures.

Chain of Factor XIa (P03951 388-625): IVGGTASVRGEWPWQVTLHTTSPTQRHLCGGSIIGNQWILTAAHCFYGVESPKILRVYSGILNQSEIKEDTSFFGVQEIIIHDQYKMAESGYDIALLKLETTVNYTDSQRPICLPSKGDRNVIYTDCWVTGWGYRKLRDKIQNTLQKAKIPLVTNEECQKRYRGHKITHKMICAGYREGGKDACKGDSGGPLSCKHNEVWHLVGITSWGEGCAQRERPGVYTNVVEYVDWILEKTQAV
Chain of Factor XIa (P03951 19-387 partner): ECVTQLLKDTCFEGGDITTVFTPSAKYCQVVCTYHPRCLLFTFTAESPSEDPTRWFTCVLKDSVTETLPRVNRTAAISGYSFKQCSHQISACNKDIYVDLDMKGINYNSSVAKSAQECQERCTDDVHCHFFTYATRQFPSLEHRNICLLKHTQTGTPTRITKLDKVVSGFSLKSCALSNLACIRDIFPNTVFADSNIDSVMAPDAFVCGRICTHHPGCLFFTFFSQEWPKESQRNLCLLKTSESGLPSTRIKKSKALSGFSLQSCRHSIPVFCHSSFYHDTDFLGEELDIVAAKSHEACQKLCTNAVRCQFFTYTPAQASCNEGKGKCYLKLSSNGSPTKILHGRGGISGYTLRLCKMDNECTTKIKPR

`O=C1C=C(c2c(-n3cnnn3)ccc(Cl)c2F)C[C@H]2CC[C@@H](c3ncc(-c4c[nH]c5ncncc45)[nH]3)N12` [Example 379, (3S,8aR)-3-(5-(7H-pyrrolo[2,3-d]pyrimidin-5-yl)-1H-imidazol-2-yl)-7-(3-chloro-2-fluoro-6-(1H-tetrazol-1-yl)phenyl)-2,3,8,8a-tetrahydroindolizin-5(1H)-one]: the IC50 was 0.6 nM at Factor XIa and 2.2 nM on human plasma kallikrein.

As to `Nc1nccc(-c2cnc([C@@H]3CC[C@@H]4CC(c5c(-n6cnnn6)ccc(Cl)c5F)=CC(=O)N43)[nH]2)c1Cl` [Example 380, (3S,8aR)-3-(5-(2-amino-3-chloropyridin-4-yl)-1H-imidazol-2-yl)-7-(3-chloro-2-fluoro-6-(1H-tetrazol-1-yl)phenyl)-2,3,8,8a-tetrahydroindolizin-5(1H)-one], the half-inhibitory concentration (IC50) on Factor XIa was 0.8 nM; on human plasma kallikrein it was 4.2 nM.

Take `Cc1cc2c(-c3cnc([C@@H]4CCC5CC(c6c(-n7cnnn7)ccc(Cl)c6F)=CC(=O)N54)[nH]3)c[nH]c2cn1` (stereo partly drawn) [Example 381, (3S)-7-(3-chloro-2-fluoro-6-(1H-tetrazol-1-yl)phenyl)-3-(5-(5-methyl-1H-pyrrolo[2,3-c]pyridin-3-yl)-1H-imidazol-2-yl)-2,3,8,8a-tetrahydroindolizin-5(1H)-one]: the values for the IC50 on Factor XIa and at human plasma kallikrein were 17.1 nM and 13.6 nM, respectively.

For the molecule `O=C1Cc2ccc(-c3cnc([C@@H]4CCC5CC(c6c(-n7cnnn7)ccc(Cl)c6F)=CC(=O)N54)[nH]3)c(F)c2N1` (stereo partly drawn) [Example 383, 6-(2-((3S)-7-(3-chloro-2-fluoro-6-(1H-tetrazol-1-yl)phenyl)-5-oxo-1,2,3,5,8,8a-hexahydroindolizin-3-yl)-1H-imidazol-5-yl)-7-fluoroindolin-2-one], the IC50 at Factor XIa is 3.1 nM; at human plasma kallikrein, 12.6 nM.

In the case of `O=C1C=C(c2c(-n3cnnn3)ccc(Cl)c2F)C[C@H]2CC[C@@H](c3ncc(-c4ccc5cc[nH]c5c4F)[nH]3)N12` [Example 384, (3S,8aR)-7-(3-chloro-2-fluoro-6-(1H-tetrazol-1-yl)phenyl)-3-(5-(7-fluoro-1H-indol-6-yl)-1H-imidazol-2-yl)-2,3,8,8a-tetrahydroindolizin-5(1H)-one], the IC50 turned out to be 1.7 nM on Factor XIa and 6.6 nM at human plasma kallikrein.

As for `O=C1C=C(c2c(-n3cc(C(F)(F)F)nn3)ccc(Cl)c2F)C[C@H]2CC[C@@H](c3ncc(-c4c[nH]c5ccncc45)[nH]3)N12` [Example 385, (3S,8aR)-3-(5-(1H-pyrrolo[3,2-c]pyridin-3-yl)-1H-imidazol-2-yl)-7-(3-chloro-2-fluoro-6-(4-(trifluoromethyl)-1H-1,2,3-triazol-1-yl)phenyl)-2,3,8,8a-tetrahydroindolizin-5(1H)-one], the IC50 on Factor XIa is 3.6 nM; at human plasma kallikrein, 26.8 nM.

Take `O=C1C=C(c2c(-n3cnnn3)ccc(Cl)c2F)C[C@H]2CC[C@@H](c3ncc(-c4ccnc5c4CCO5)[nH]3)N12` [Example 386, (3S,8aR)-7-(3-chloro-2-fluoro-6-(1H-tetrazol-1-yl)phenyl)-3-(5-(2,3-dihydrofuro[2,3-b]pyridin-4-yl)-1H-imidazol-2-yl)-2,3,8,8a-tetrahydroindolizin-5(1H)-one]: the IC50 amounted to 1.3 nM at Factor XIa and 9.5 nM at human plasma kallikrein.

Consider `O=C1C=C(c2c(-n3cnnn3)ccc(Cl)c2F)C[C@H]2CC[C@@H](c3ncc(-c4ccnc5ccsc45)[nH]3)N12` [Example 387, (3S,8aR)-7-(3-chloro-2-fluoro-6-(1H-tetrazol-1-yl)phenyl)-3-(5-(thieno[3,2-b]pyridin-7-yl)-1H-imidazol-2-yl)-2,3,8,8a-tetrahydroindolizin-5(1H)-one], for which the IC50 at Factor XIa stood at 1.3 nM; on human plasma kallikrein, 3.8 nM.

As to `COc1cc2[nH]cc(-c3cnc([C@@H]4CC[C@@H]5CC(c6c(-n7cnnn7)ccc(Cl)c6F)=CC(=O)N54)[nH]3)c2cn1` [Example 388, (3S,8aR)-7-(3-chloro-2-fluoro-6-(1H-tetrazol-1-yl)phenyl)-3-(5-(6-methoxy-1H-pyrrolo[3,2-c]pyridin-3-yl)-1H-imidazol-2-yl)-2,3,8,8a-tetrahydroindolizin-5(1H)-one], the IC50 was determined as 0.5 nM on Factor XIa and 1.9 nM at human plasma kallikrein.

Consider `Nc1cc(-c2cnc([C@@H]3CC[C@@H]4CC(c5c(-n6cnnn6)ccc(Cl)c5F)=CC(=O)N43)[nH]2)ccn1` [Example 389, (3S,8aR)-3-(5-(2-aminopyridin-4-yl)-1H-imidazol-2-yl)-7-(3-chloro-2-fluoro-6-(1H-tetrazol-1-yl)phenyl)-2,3,8,8a-tetrahydroindolizin-5(1H)-one], for which the IC50 is 1.4 nM at Factor XIa and 12.4 nM at human plasma kallikrein.

As to `CCNc1nccc(-c2cnc([C@@H]3CC[C@@H]4CC(c5c(-n6cnnn6)ccc(Cl)c5F)=CC(=O)N43)[nH]2)c1F` [Example 390, (3S,8aR)-7-(3-chloro-2-fluoro-6-(1H-tetrazol-1-yl)phenyl)-3-(5-(2-(ethylamino)-3-fluoropyridin-4-yl)-1H-imidazol-2-yl)-2,3,8,8a-tetrahydroindolizin-5(1H)-one], the IC50 on Factor XIa was 0.4 nM; on human plasma kallikrein, 1.3 nM.

`CC12CC[C@@H](c3ncc(-c4ccnc(CO)c4F)[nH]3)N1C(=O)C=C(c1c(-n3cnnn3)ccc(Cl)c1F)C2` (stereo partly drawn) [Example 391, (3S)-7-(3-chloro-2-fluoro-6-(1H-tetrazol-1-yl)phenyl)-3-(5-(3-fluoro-2-(hydroxymethyl)pyridin-4-yl)-1H-imidazol-2-yl)-8a-methyl-2,3,8,8a-tetrahydroindolizin-5(1H)-one]: the IC50 is 33.3 nM at Factor XIa and 35.4 nM on human plasma kallikrein.

The values are drawn from US20230295157A1, “3-(1H-IMIDAZOL-2-YL)-2,3,8,8A-TETRAHYDROINDOLIZIN-5(1H)-ONE DERIVATIVES USEFUL AS FACTOR XIA INHIBITORS” (JANSSEN PHARMACEUTICA NV, priority 2020, published 2023).
